Test results reported in PubChem BioAssay AID1963827 (Molecular Pharmacology Branch, DTP, NCI, 2024).

Tested on: 994946-033-R-J1-PDC complex spheroid viability
Assay: Anticancer human tumor 994946-033-R-J1-PDC patient-derived melanoma cell line growth inhibition [POLQ]
Conditions: for IC50: curve of first compound; for viability, T/C: stronger effect = lower value
In short: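 Three-cell-type spheroids modelling solid tumor plus stroma served as the readout system; POL inhibitors were tested individually and in combination, concentration ranges set by clinical Cmax where known.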

[1] = second compound 0.0316 µM, first compound 0.00316 µM
[2] = second compound 0.0316 µM, first compound 0.01 µM
[3] = second compound 0.0316 µM, first compound 0.0316 µM
[4] = second compound 0.0316 µM, first compound 0.1 µM
[5] = second compound 0.1 µM, first compound 0.00316 µM
[6] = second compound 0.1 µM, first compound 0.01 µM
[7] = second compound 0.1 µM, first compound 0.0316 µM
[8] = second compound 0.1 µM, first compound 0.1 µM
[9] = second compound 0.316 µM, first compound 0.00316 µM
[10] = second compound 0.316 µM, first compound 0.01 µM
[11] = second compound 0.316 µM, first compound 0.0316 µM
[12] = second compound 0.316 µM, first compound 0.1 µM
[13] = second compound 1 µM, first compound 0.00316 µM
[14] = second compound 1 µM, first compound 0.01 µM
[15] = second compound 1 µM, first compound 0.0316 µM
[16] = second compound 1 µM, first compound 0.1 µM
[17] = second compound 3.16 µM, first compound 0.00316 µM
[18] = second compound 3.16 µM, first compound 0.01 µM
[19] = second compound 3.16 µM, first compound 0.0316 µM
[20] = second compound 3.16 µM, first compound 0.1 µM
[21] = second compound 10 µM, first compound 0.00316 µM
[22] = second compound 10 µM, first compound 0.01 µM
[23] = second compound 10 µM, first compound 0.0316 µM
[24] = second compound 10 µM, first compound 0.1 µM
[25] = second compound 0.0316 µM, first compound 0.316 µM
[26] = second compound 0.0316 µM, first compound 1 µM
[27] = second compound 0.1 µM, first compound 0.316 µM
[28] = second compound 0.1 µM, first compound 1 µM
[29] = second compound 0.316 µM, first compound 0.316 µM
[30] = second compound 0.316 µM, first compound 1 µM
[31] = second compound 1 µM, first compound 0.316 µM
[32] = second compound 1 µM, first compound 1 µM
[33] = second compound 3.16 µM, first compound 0.316 µM
[34] = second compound 3.16 µM, first compound 1 µM
[35] = second compound 10 µM, first compound 0.316 µM
[36] = second compound 10 µM, first compound 1 µM
[37] = second compound 0.0316 µM, first compound 3.16 µM
[38] = second compound 0.0316 µM, first compound 10 µM
[39] = second compound 0.1 µM, first compound 3.16 µM
[40] = second compound 0.1 µM, first compound 10 µM
[41] = second compound 0.316 µM, first compound 3.16 µM
[42] = second compound 0.316 µM, first compound 10 µM
[43] = second compound 1 µM, first compound 3.16 µM
[44] = second compound 1 µM, first compound 10 µM
[45] = second compound 3.16 µM, first compound 3.16 µM
[46] = second compound 3.16 µM, first compound 10 µM
[47] = second compound 10 µM, first compound 3.16 µM
[48] = second compound 10 µM, first compound 10 µM
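Note: spheroids exposed to drugs for 7 days.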
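Throughout, for viability, T/C: 100% = DMSO vehicle treated spheroids.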

SMILES: CC[C@@]1(O)C(=O)OCc2c1cc1n(c2=O)Cc2cc3c(CN(C)C)c(O)ccc3nc2-1 + COC1C(OC(N)=O)C(O)C(Oc2ccc3c(O)c(NC(=O)c4ccc(O)c(CC=C(C)C)c4)c(=O)oc3c2C)OC1(C)C
- IC50 (second compound 0.0316 µM): 21.2 nM
- IC50 (second compound 0.1 µM): 19.8 nM
- IC50 (second compound 0.316 µM): 21.4 nM
- IC50 (second compound 1 µM): 20.5 nM
- IC50 (second compound 3.16 µM): 17.7 nM
- IC50 (second compound 10 µM): 20.2 nM
- viability, T/C (second compound 0.0316 µM, first compound 0.000316 µM): 107%
- viability, T/C (second compound 0.0316 µM, first compound 0.001 µM): 69.1%
- viability, T/C [1]: 117%
- viability, T/C [2]: 77.8%
- viability, T/C [3]: 34.3%
- viability, T/C [4]: 7.91%
- viability, T/C (second compound 0.1 µM, first compound 0.000316 µM): 91.4%
- viability, T/C (second compound 0.1 µM, first compound 0.001 µM): 101%
- viability, T/C [5]: 109%
- viability, T/C [6]: 79.2%
- viability, T/C [7]: 29.4%
- viability, T/C [8]: 8%
- viability, T/C (second compound 0.316 µM, first compound 0.000316 µM): 96.6%
- viability, T/C (second compound 0.316 µM, first compound 0.001 µM): 99.6%
- viability, T/C [9]: 91.3%
- viability, T/C [10]: 86%
- viability, T/C [11]: 31.5%
- viability, T/C [12]: 11.3%
- viability, T/C (second compound 1 µM, first compound 0.000316 µM): 118%
- viability, T/C (second compound 1 µM, first compound 0.001 µM): 107%
- viability, T/C [13]: 100%
- viability, T/C [14]: 81.5%
- viability, T/C [15]: 30.4%
- viability, T/C [16]: 15.1%
- viability, T/C (second compound 3.16 µM, first compound 0.000316 µM): 92.7%
- viability, T/C (second compound 3.16 µM, first compound 0.001 µM): 86.5%
- viability, T/C [17]: 77%
- viability, T/C [18]: 73.1%
- viability, T/C [19]: 28%
- viability, T/C [20]: 10.2%
- viability, T/C (second compound 10 µM, first compound 0.000316 µM): 85.5%
- viability, T/C (second compound 10 µM, first compound 0.001 µM): 86.9%
- viability, T/C [21]: 85.4%
- viability, T/C [22]: 81%
- viability, T/C [23]: 30.3%
- viability, T/C [24]: 8.24%

SMILES: CCc1c2c(nc3ccc(O)cc13)-c1cc3c(c(=O)n1C2)COC(=O)[C@]3(O)CC + COC1C(OC(N)=O)C(O)C(Oc2ccc3c(O)c(NC(=O)c4ccc(O)c(CC=C(C)C)c4)c(=O)oc3c2C)OC1(C)C
- IC50 (second compound 0.0316 µM): < 3.16 nM
- IC50 (second compound 0.1 µM): < 3.16 nM
- IC50 (second compound 0.316 µM): < 3.16 nM
- IC50 (second compound 1 µM): < 3.16 nM
- IC50 (second compound 3.16 µM): < 3.16 nM
- IC50 (second compound 10 µM): < 3.16 nM
- viability, T/C [1]: 21.2%
- viability, T/C [2]: 10.5%
- viability, T/C [3]: 5.04%
- viability, T/C [4]: 6.46%
- viability, T/C [25]: 4.53%
- viability, T/C [26]: 1.07%
- viability, T/C [5]: 14.8%
- viability, T/C [6]: 7.14%
- viability, T/C [7]: 4.91%
- viability, T/C [8]: 4.35%
- viability, T/C [27]: 3.22%
- viability, T/C [28]: 0.99%
- viability, T/C [9]: 20.7%
- viability, T/C [10]: 8.29%
- viability, T/C [11]: 4.94%
- viability, T/C [12]: 5%
- viability, T/C [29]: 3.67%
- viability, T/C [30]: 0.92%
- viability, T/C [13]: 21.2%
- viability, T/C [14]: 8.21%
- viability, T/C [15]: 5.36%
- viability, T/C [16]: 4.87%
- viability, T/C [31]: 3%
- viability, T/C [32]: 0.93%
- viability, T/C [17]: 17.8%
- viability, T/C [18]: 9.17%
- viability, T/C [19]: 4.15%
- viability, T/C [20]: 4.13%
- viability, T/C [33]: 3.2%
- viability, T/C [34]: 0.9%
- viability, T/C [21]: 16.8%
- viability, T/C [22]: 6.62%
- viability, T/C [23]: 5.93%
- viability, T/C [24]: 4.77%
- viability, T/C [35]: 2.81%
- viability, T/C [36]: 1.02%

SMILES: Nc1ccn(C2OC(CO)C(O)C2(F)F)c(=O)n1 (stereo not drawn) + COC1C(OC(N)=O)C(O)C(Oc2ccc3c(O)c(NC(=O)c4ccc(O)c(CC=C(C)C)c4)c(=O)oc3c2C)OC1(C)C
- IC50 (second compound 0.0316 µM): < 31.6 nM
- IC50 (second compound 0.1 µM): < 31.6 nM
- IC50 (second compound 0.316 µM): < 31.6 nM
- IC50 (second compound 1 µM): < 31.6 nM
- IC50 (second compound 3.16 µM): 35.4 nM
- IC50 (second compound 10 µM): < 31.6 nM
- viability, T/C [3]: 24.4%
- viability, T/C [4]: 9.96%
- viability, T/C [25]: 7.61%
- viability, T/C [26]: 7.06%
- viability, T/C [37]: 5.98%
- viability, T/C [38]: 1.31%
- viability, T/C [7]: 30.7%
- viability, T/C [8]: 9.93%
- viability, T/C [27]: 5.26%
- viability, T/C [28]: 7.92%
- viability, T/C [39]: 7.09%
- viability, T/C [40]: 2.72%
- viability, T/C [11]: 26.8%
- viability, T/C [12]: 7.23%
- viability, T/C [29]: 6.54%
- viability, T/C [30]: 6.27%
- viability, T/C [41]: 6.01%
- viability, T/C [42]: 3.92%
- viability, T/C [15]: 28.8%
- viability, T/C [16]: 4.66%
- viability, T/C [31]: 7.79%
- viability, T/C [32]: 8.09%
- viability, T/C [43]: 5.28%
- viability, T/C [44]: 2.12%
- viability, T/C [19]: 54.6%
- viability, T/C [20]: 7.74%
- viability, T/C [33]: 6.32%
- viability, T/C [34]: 6%
- viability, T/C [45]: 4.45%
- viability, T/C [46]: 1.73%
- viability, T/C [23]: 19.9%
- viability, T/C [24]: 7.37%
- viability, T/C [35]: 6.97%
- viability, T/C [36]: 6.33%
- viability, T/C [47]: 4.89%
- viability, T/C [48]: 2.82%

SMILES: O=c1[nH]cc(F)c(=O)[nH]1 + COC1C(OC(N)=O)C(O)C(Oc2ccc3c(O)c(NC(=O)c4ccc(O)c(CC=C(C)C)c4)c(=O)oc3c2C)OC1(C)C
- IC50 (second compound 0.0316 µM): > 10000 nM
- IC50 (second compound 0.1 µM): 8300 nM
- IC50 (second compound 0.316 µM): 7080 nM
- IC50 (second compound 1 µM): > 10000 nM
- IC50 (second compound 3.16 µM): 8980 nM
- IC50 (second compound 10 µM): > 10000 nM
- viability, T/C [3]: 86%
- viability, T/C [4]: 130%
- viability, T/C [25]: 113%
- viability, T/C [26]: 76%
- viability, T/C [37]: 60.7%
- viability, T/C [38]: 53.7%
- viability, T/C [7]: 91.2%
- viability, T/C [8]: 93.2%
- viability, T/C [27]: 102%
- viability, T/C [28]: 82%
- viability, T/C [39]: 61.7%
- viability, T/C [40]: 47.4%
- viability, T/C [11]: 133%
- viability, T/C [12]: 99.6%
- viability, T/C [29]: 100%
- viability, T/C [30]: 71%
- viability, T/C [41]: 45.3%
- viability, T/C [42]: 53.5%
- viability, T/C [15]: 87.6%
- viability, T/C [16]: 102%
- viability, T/C [31]: 91.8%
- viability, T/C [32]: 57%
- viability, T/C [43]: 53.7%
- viability, T/C [44]: 53.9%
- viability, T/C [19]: 124%
- viability, T/C [20]: 113%
- viability, T/C [33]: 83.7%
- viability, T/C [34]: 65.9%
- viability, T/C [45]: 60.6%
- viability, T/C [46]: 50.4%
- viability, T/C [23]: 108%
- viability, T/C [24]: 114%
- viability, T/C [35]: 90.5%
- viability, T/C [36]: 81.1%
- viability, T/C [47]: 58.6%
- viability, T/C [48]: 61.5%
